Data as given in patent publication US11207312B2, “Metallo-beta-lactamase inhibitors and methods of use thereof” (priority 2017, dated 2021).

Assays:
NDM-1 = NDM-1 (Klebsiella pneumoniae, UniProt C7C422); test: biochemical; format: biochemical; conditions: CCF2-FA fluorescence assay, 2 hours at 25° C.
Outline: (§1)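 IC50s come from 4-parameter fits of inhibition versus inhibitor concentration, tested from 20 μM down to 0.00063 μM. Enzyme, CCF2-FA (1.25 μM) and inhibitor react 2 h at 25° C, pH 7, with 10 μM ZnSO4 and 0.005% Tween-20.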

IMP-1 = IMP-1 (Serratia marcescens, UniProt P52699); test: biochemical; conditions: CCF2-FA fluorescence assay, 2 hours at 25° C.; read-out: IMP1 IC50
Sequence of IMP-1 (P52699 whole entry, looked up, species assumed): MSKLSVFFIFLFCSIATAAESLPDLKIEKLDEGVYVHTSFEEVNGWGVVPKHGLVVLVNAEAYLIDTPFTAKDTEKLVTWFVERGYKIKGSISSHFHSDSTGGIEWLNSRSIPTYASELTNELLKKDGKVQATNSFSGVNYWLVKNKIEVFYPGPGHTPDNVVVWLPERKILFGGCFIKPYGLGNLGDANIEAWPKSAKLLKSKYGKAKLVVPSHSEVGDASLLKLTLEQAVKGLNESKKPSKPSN
Outline: as §1

VIM-1 = VIM-1 (Pseudomonas aeruginosa (strain ATCC 15692 / DSM 22644 / CIP 104116 / JCM 14847 / LMG 12228 / 1C / PRS 101 / PAO1), UniProt A0A0F7KYQ8); test: biochemical; conditions: CCF2-FA fluorescence assay, 2 hours at 25° C.; read-out: VIM1 IC50
Outline: as §1

VIM-2 = VIM-2 (Escherichia coli, UniProt Q5U7L7); test: biochemical; conditions: CCF2-FA fluorescence assay; read-out: VIM2 IC50
[1] = system: Escherichia coli expressing NDM-1 (CLB30016); format: cell-based; conditions: with imipenem 1 μg/ml; 95% inhibition of bacterial growth
Outline: (§2)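 Read-out is absorbance after 22–24 h at 35 °C, with MITC95 taken as the lowest inhibitor concentration that, alongside imipenem at 1 μg/ml, suppresses 95% of bacterial growth. Inocula came from saline-suspended colonies diluted 1:100 into 1.1× CAMHB.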

[2] = system: Klebsiella pneumoniae expressing VIM-1 (IHMA599644); format: cell-based; conditions: with imipenem 1 μg/ml; 95% inhibition of bacterial growth
Outline: as §2

[3] = system: Serratia marcescens expressing IMP-1 (CL5741); format: cell-based; conditions: with imipenem 1 μg/ml; 95% inhibition of bacterial growth
Outline: as §2

[4] = system: P. aeruginosa MB9798 (efflux+, IMP-1 plasmid); conditions: for MB9798 MITC95 P. aeruginosa uM Efflux WT: efflux + (MB9798) strain, imipenem at 2 μg/mL, in the presence of a class A, C, D serine β-lactamase inhibitor closely related to relebactam; for Efflux ratio: fold difference between efflux+ (MB9798) and efflux− (MB9799) strains
Outline: (§3)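 Isogenic P. aeruginosa PAO1 strains (efflux+ and multiple-efflux-pump-disrupted) carrying plasmid IMP-1, with inducible AmpC, tested by broth microdilution. Imipenem and/or ceftazidime fixed, usually at CLSI breakpoint, plus fixed class A/C β-lactamase inhibitor; titrated MBL inhibitor concentration restoring susceptibility recorded and compared between strains as efflux fold difference.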

[5] = system: P. aeruginosa MB9799 (efflux-, IMP-1 plasmid); format: cell-based, Pseudomonas aeruginosa; conditions: efflux − (MB9799) strain; imipenem at 2 μg/mL; in the presence of a class A, C, D serine β-lactamase inhibitor closely related to relebactam
Outline: as §3

Sequence of NDM-1 (C7C422 whole entry, looked up, species assumed): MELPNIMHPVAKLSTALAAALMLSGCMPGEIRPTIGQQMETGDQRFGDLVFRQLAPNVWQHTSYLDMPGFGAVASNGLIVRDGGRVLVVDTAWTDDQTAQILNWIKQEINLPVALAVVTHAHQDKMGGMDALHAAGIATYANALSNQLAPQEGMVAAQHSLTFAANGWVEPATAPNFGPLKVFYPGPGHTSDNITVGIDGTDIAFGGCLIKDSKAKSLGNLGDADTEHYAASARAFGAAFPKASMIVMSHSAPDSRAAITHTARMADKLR

| Structure (SMILES) | IC50 (NDM-1) [nM] | IC50 (IMP-1) [nM] | IC50 (VIM-1) [nM] | IC50 (VIM-2) [nM] | CLB30016 E. coli MITC95 NDM [1] [µM] | IHMA599644 K. pneumoniae MITC95 VIM [2] [µM] | CL5741 S. marcescens MITC95 IMP [3] [µM] | MB9798 MITC95 P. aeruginosa uM Efflux WT [4] [µM] | Efflux ratio [4] | MB9799 MITC95 P. aeruginosa uM Efflux Mutant [5] [µM] |
| --- | --- | --- | --- | --- | --- | --- | --- | --- | --- | --- |
| NS(=O)(=O)c1c(S(=O)(=O)N[C@@H]2CCNC2)ccc(N2CCN(CCO)CC2)c1-c1nnn[nH]1 [Example 102, 4-[4-(2-hydroxyethyl)piperazin-1-yl]-N1-[(3R)-pyrrolidin-3-yl]-3-(1H-tetrazol-5-yl)benzene-1,2-disulfonamide] | 1.35 | 2.07 | 3.06 | 7.94 | 0.20 | 3.13 | 0.20 | 3.13 | 2.00 | 1.56 |
| NS(=O)(=O)c1c(S(=O)(=O)N[C@@H]2CCNC2)ccc(N2CCOC(CO)C2)c1-c1nnn[nH]1 (stereo partly drawn) [Example 103, 4-[2-(hydroxymethyl)morpholin-4-yl]-N1-[(3R)-pyrrolidin-3-yl]-3-(1H-tetrazol-5-yl)benzene-1,2-disulfonamide] | 0.68 | 3.46 | 0.42 | 0.59 | 3.13 | 6.25 | 3.13 | 3.13 | 2.00 | 1.56 |
| NS(=O)(=O)c1c(S(=O)(=O)N[C@@H]2CCNC2)ccc(N2CCCCC(O)C2)c1-c1nnn[nH]1 (stereo partly drawn) [Example 104, 4-(3-hydroxyazepan-1-yl)-N1-[(3R)-pyrrolidin-3-yl]-3-(1H-tetrazol-5-yl)benzene-1,2-disulfonamide] | 0.68 | 2.06 | 0.21 | 0.65 | 3.13 | 3.13 | 3.13 | 3.13 | 2.00 | 1.56 |
| NS(=O)(=O)c1c(S(=O)(=O)N[C@@H]2CCNC2)ccc(N2CCOC(CCO)C2)c1-c1nnn[nH]1 (stereo partly drawn) [Example 105, 4-[2-(2-hydroxyethyl)morpholin-4-yl]-N1-[(3R)-pyrrolidin-3-yl]-3-(1H-tetrazol-5-yl)benzene-1,2-disulfonamide] | 0.25 | 1.16 | 0.96 | 1.79 | 6.25 | 12.50 | 6.25 | 12.50 | 2.00 | 6.25 |
| NS(=O)(=O)c1c(S(=O)(=O)N[C@@H]2CCNC2)ccc(N2CCC(Cc3ccccn3)CC2)c1-c1nnn[nH]1 [Example 106, 4-[4-(pyridin-2-ylmethyl)piperidin-1-yl]-N1-[(3R)-pyrrolidin-3-yl]-3-(1H-tetrazol-5-yl)benzene-1,2-disulfonamide] | 0.06 | 0.12 | 0.1 | 0.46 | 6.25 | 6.25 | 3.13 | 50.00 | 16.00 | 3.13 |
| NS(=O)(=O)c1c(S(=O)(=O)N[C@@H]2CCNC2)ccc(N2CCCC(CO)C2)c1-c1nnn[nH]1 (stereo partly drawn) [Example 107, 4-[3-(hydroxymethyl)piperidin-1-yl]-N1-[(3R)-pyrrolidin-3-yl]-3-(1H-tetrazol-5-yl)benzene-1,2-disulfonamide] | 0.25 | 1.1 | 0.19 | 0.42 | 3.13 | 6.25 | 3.13 | 3.13 | 2.00 | 1.56 |
